Experiments:
[1] = molecular target: SARS-CoV-2 3CL protease (Severe acute respiratory syndrome coronavirus 2, UniProt P0DTD1); assay: biochemical; details: for IC50: 15 nM enzyme, 60 min at 23° C.; for Ki: fit to the Morrison equation
[2] = test system: SARS-CoV-2; assay: Antiviral activity in HeLa-ACE2 cells (viral protein detection); assay type: cell-based; details: Severe acute respiratory syndrome coronavirus 2, compound alone

Which IC50 [1] does the source give for `CC(C)(C)C[C@H](NC(=O)[C@H]1CCCO1)C(=O)N[C@@H](C[C@@H]1CCNC1=O)C(=O)COC(=O)c1c(Cl)cccc1Cl` [(3S)-3-({4-methyl-N-[(2R)-tetrahydrofuran-2-ylcarbonyl]-L-leucyl}amino)-2-oxo-4-[(3S)-2-oxopyrrolidin-3-yl]butyl 2,6-dichlorobenzoate] here?
Its IC50 is 17 nM.

What about the Ki [1] of the same molecule?
Its Ki is 2.71 nM.

`COc1cccc2[nH]c(C(=O)N[C@@H](CC(C)C)C(=O)N[C@@H](C[C@@H]3CCNC3=O)C(=O)COC(=O)C3CC3)cc12` [(3S)-3-({N-[(4-methoxy-1H-indol-2-yl)carbonyl]-L-leucyl}amino)-2-oxo-4-[(3S)-2-oxopyrrolidin-3-yl]butyl cyclopropanecarboxylate] was tested. Which IC50 [1] did it give?
The IC50 was 128 nM.

What about the Ki [1] of the same molecule?
Its Ki is 42.7 nM.

Which results are given for `O=C(N[C@@H](CC1CC1)C(=O)N[C@@H](C[C@@H]1CCNC1=O)C(=O)c1nc2ccccc2s1)c1ccccn1` [H, N-((S)-1-(((S)-1-(benzo[d]thiazol-2-yl)-1-oxo-3-((S)-2-oxopyrrolidin-3-yl)propan-2-yl)amino)-3-cyclopropyl-1-oxopropan-2-yl)picolinamide]?
IC50 [1]: 8400 nM; Ki [1]: 3050 nM

How did the IC50 [1] turn out when `COc1cccc2[nH]c(C(=O)N[C@@H](Cc3ccccc3)C(=O)N[C@@H](C[C@@H]3CCNC3=O)C(=O)CO)cc12` [I, N-((S)-1-(((S)-4-hydroxy-3-oxo-1-((S)-2-oxopyrrolidin-3-yl)butan-2-yl)amino)-1-oxo-3-phenylpropan-2-yl)-4-methoxy-1H-indole-2-carboxamide] was run?
The IC50 was 375 nM.

What about the Ki [1] of the same molecule?
The Ki was 139 nM.

What does the source list for `CC(C)(C)C[C@H](NC(=O)c1cc2ccccc2[nH]1)C(=O)N[C@@H](C[C@@H]1CCNC1=O)C(=O)CO` [N-((1S)-1-{[((1S)-3-hydroxy-2-oxo-1-{[(3S)-2-oxopyrrolidin-3-yl]methyl}propyl)amino]carbonyl}-3,3-dimethylbutyl)-1H-indole-2-carboxamide]?
IC50 [1]: 24 nM; Ki [1]: 2.81 nM

How did the EC90 [2] turn out when `CCC(CC)COC(=O)[C@H](C)N[P@](=O)(OC[C@H]1O[C@@](C#N)(c2ccc3c(N)ncnn23)[C@H](O)[C@@H]1O)Oc1ccccc1` [remdesivir, reference compound] was run?
The EC90 was 168 nM.
